80 compounds from the METLIN SMRT retention time set (Domingo-Almenara et al. 2019) can be followed below.

The nature of this data set: gradient 5% acetonitrile 3 min, to 50% in 2 min, to 85% in 15 min, held 3 min, 100 µL/min. The following applies: column: Zorbax Extend-C18 2.1 x 50 mm; eluents: water / acetonitrile, 0.1% formic acid. A digest of the protocol: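 Each retention time is based on an adduct peak selected computationally and verified by manual inspection. Measurements used HPLC–quadrupole time-of-flight mass spectrometry in positive and negative ionization mode on mixtures of ~100 pure standards. Chromatography ran on a Zorbax Extend-C18 column (2.1 × 50 mm, 1.8 μm) at 100 μL/min with water and acetonitrile, each containing 0.1% formic acid, and dead and dwell volumes of 40 μL and 900 μL.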
As to `CS(=O)(=O)N1CCC(C(=O)Nc2sccc2C#N)CC1`, the RP-LC retention time came to 662 s.

The compound `COc1cc2c(cc1CNC(=O)c1cccs1)OCCCO2` showed an RP-LC retention time of 780 s.

With `CCc1ccc(CNC(=O)C2CCCN(c3nc4c(s3)c(C)nn4-c3ccc(F)cc3)C2)cc1` (stereo not given), the RP-LC retention time worked out at 1240 s.

For the compound `O=C(Nc1ccc(F)c(F)c1)C1CCN(C(=O)c2ncn3c2COC(c2ccc(F)cc2)C3)CC1` (stereo not given), the RP-LC retention time was determined as 852 s.

In the case of `CCOc1ccc(NC(=O)Cn2c(N)nc(CC)cc2=O)cc1`, the RP-LC retention time was 630 s.

Take `CCC(CC)C(=O)Nc1c(-c2ccccc2)nc2cc(C)ccn12`: the RP-LC retention time was 654 s.

Compound `CCN1CCCC1CNC(=O)c1cc(S(=O)(=O)CC)c(N)cc1OC` (stereo not given) gave an RP-LC retention time of 591 s.

As to `CN1CCCC1c1nc(C2CN(C(=O)c3ccn[nH]3)C2)no1` (stereo not given), the RP-LC retention time worked out at 506 s.

`COc1ccc(NC(=O)Cn2c(=O)c3cc(C)nn3c3ncccc32)cc1Cl` registered an RP-LC retention time of 724 s.

In the case of `Cc1nc(CCNC(=O)NC2CCCCC2)no1`, the RP-LC retention time was found to be 649 s.

The compound `Cc1ccc(-c2noc(Cn3ccn(-c4c(C)cccc4C)c(=O)c3=O)n2)cc1C` showed an RP-LC retention time of 1000 s.

In turn, `CC(C)n1c(N2CCCN(C(=O)c3ccco3)CC2)cc(=O)n(C(C)C)c1=O` returned an RP-LC retention time of 756 s.

For `CCc1ccc(CNC(=O)c2cn(C)nc2S(=O)(=O)N2CCSCC2)cc1`, the RP-LC retention time was 961 s.

In the case of `O=C(Nc1ccc(C(F)(F)F)cc1)c1cnc(-c2ccccc2)nc1-c1ccncc1`, the RP-LC retention time was 1010 s.

Compound `O=C(CN1C(=O)CCCc2cc(S(=O)(=O)N3CCCCC3)ccc21)NCc1ccccc1` had an RP-LC retention time of 847 s.

`CCOC(=O)C1=CN(CC(=O)NCc2ccc(Cl)cc2)S(=O)(=O)N=C1C` showed an RP-LC retention time of 906 s.

The compound `COc1cccc(CCC(=O)Nc2ccc3ncnc(N4CCCC4)c3c2)c1` showed an RP-LC retention time of 683 s.

`COC(=O)c1cc2c(=O)n(Cc3ccc(OC)c(OC)c3)ccc2nc1C` showed an RP-LC retention time of 760 s.

For `O=C(Nc1ccc2c(c1)OCO2)N1CCC(N2CCN(Cc3ccc(F)cc3)C2=O)CC1`, the RP-LC retention time stood at 788 s.

The compound `O=C(NC1CCCCC1)c1ccc2c(c1)CCN2C(=O)C1CC1` had an RP-LC retention time of 824 s.

The compound `N#Cc1ccc(C(=O)NC2CCN(c3cc(-c4cccs4)[nH]n3)C2)cc1` (stereo not given) had an RP-LC retention time of 700 s.

Turning to `COc1ccccc1CNC(=O)C1CCCN(c2ncnc3c2oc2ccccc23)C1` (stereo not given), the RP-LC retention time is 746 s.

The compound `CCc1cccc(CC)c1NC(=O)c1cccc(OC)c1` had an RP-LC retention time of 875 s.

Take `O=C(NCc1cccnc1)C1c2ccccc2C(=O)N1Cc1ccccc1` (stereo not given): the RP-LC retention time was 604 s.

Consider `O=S(=O)(c1ccc2c(c1)CCC2)N1CCCC1c1noc(CO)n1` (stereo not given), for which the RP-LC retention time came out at 779 s.

In turn, `COc1ccc(Cn2nnc3cc(C(=O)Nc4cc(C)on4)ccc32)cc1` displayed an RP-LC retention time of 817 s.

The compound `O=C(Nc1ccc2c(c1)OCCO2)C1CCCN(c2nccnc2Sc2ccccc2)C1` (stereo not given) yielded an RP-LC retention time of 1030 s.

As for `CCOc1ccc(-c2noc(CN3C(=O)COc4ccc(Cl)cc43)n2)cc1OC`, the RP-LC retention time came out at 1050 s.

Take `Cc1ccc(C)c(N2CC(c3nc(-c4ccc5c(c4)OCO5)no3)CC2=O)c1` (stereo not given): the RP-LC retention time turned out to be 998 s.

In the case of `CCn1c(=O)c(C)nc2cc(-c3noc(Cc4ccccc4Br)n3)ccc21`, the RP-LC retention time was 1070 s.

In turn, `O=C(Cc1csc(Nc2ncccn2)n1)NCC(F)(F)F` had an RP-LC retention time of 626 s.

Turning to `Cc1cc(CN2CCC(CNC(=O)C(=O)NCCC3=CCCCC3)CC2)c(C)o1`, the RP-LC retention time came to 607 s.

Compound `O=C(C1=CN(c2ccc(Oc3ccccc3)cc2)c2ccccc2S1(=O)=O)N1CCOCC1` gave an RP-LC retention time of 913 s.

As to `CCNC(=O)c1n[nH]c2c1CN(C(=O)c1cc(F)cc(F)c1)CC2`, the RP-LC retention time is 634 s.

Compound `COc1ccc(CCc2nc3nccc(-c4cccs4)n3n2)cc1` had an RP-LC retention time of 932 s.

In the case of `Cc1cc(C)c2c(N)c(C(=O)c3ccccn3)sc2n1`, the RP-LC retention time came to 739 s.

Consider `O=C(NC1CC1)c1cc(-c2cccs2)n(C2CCS(=O)(=O)C2)n1` (stereo not given), for which the RP-LC retention time was 710 s.

The compound `COc1cccc(C(=O)N2CCC(c3cc(N)on3)CC2)c1OC` gave an RP-LC retention time of 639 s.

Compound `CCCNC(=O)C1CCCN(c2nnc3c(Cl)cccn23)C1` (stereo not given) registered an RP-LC retention time of 571 s.

The compound `CC(C)(C)c1ccc(OCC(=O)N(Cc2ccc(Br)o2)C2CCS(=O)(=O)C2)cc1` (stereo not given) registered an RP-LC retention time of 1060 s.

In turn, `CCn1cc(S(=O)(=O)N2CCC(c3noc(COCCOC)n3)CC2)cn1` returned an RP-LC retention time of 704 s.

`O=C(Nc1ccc2c(c1)OCCO2)C(=O)c1cccn1Cc1ccccc1` registered an RP-LC retention time of 1040 s.

On to `CCN1CCN(CCNC(=O)C(C)n2c3ccccc3c3cnn(C)c(=O)c32)CC1` (stereo not given), for which the RP-LC retention time came out at 544 s.

Compound `COc1ccc(NC(=O)Cn2nc3nc(N4CCCC(C)C4)ccn3c2=O)cc1Cl` (stereo not given) came in with an RP-LC retention time of 717 s.

Compound `O=C(c1ccc(Br)cc1)N1CCN(C(=O)c2cc(-c3cccnc3)n[nH]2)CC1` had an RP-LC retention time of 626 s.

In turn, `Cc1ccc(-n2ncc3c(N4CCN(CCO)CC4)ncnc32)cc1Cl` had an RP-LC retention time of 651 s.

`Cc1nc(-c2noc(-c3ccccc3)n2)cn1CC(=O)NCc1ccc(Cl)cc1`: the RP-LC retention time is 866 s.

With `Cc1noc(C)c1C1CCCN1C(=O)c1cnn2c(C(F)(F)F)cc(-c3ccco3)nc12` (stereo not given), the RP-LC retention time turned out to be 875 s.

Take `CNC(=O)[C@H]1O[C@@H](n2cnc3c(NCc4cccc(I)c4)nc(Cl)nc32)C(O)[C@H]1O` (stereo not given in full): the RP-LC retention time was 768 s.

Turning to `COCc1nncn1C1CCN(S(=O)(=O)c2ccc(F)c(Cl)c2)CC1`, the RP-LC retention time is 739 s.

`CCn1c(=O)c2c(cc(C)n2C)n(CC(=O)Nc2cc(Cl)ccc2OC)c1=O` returned an RP-LC retention time of 888 s.

With `Cc1ccc(N2CC(NC(=O)NCc3cccs3)CC2=O)cc1C` (stereo not given), the RP-LC retention time was determined as 704 s.

In turn, `O=C(Nc1nccs1)C1CCN(C(=O)c2cccc(-n3cnnn3)c2)CC1` displayed an RP-LC retention time of 625 s.

The compound `COc1cc(Cl)c(C)cc1NC(=O)CSc1ccc(N2CCCC(C(=O)NC3CC3)C2)nn1` (stereo not given) had an RP-LC retention time of 774 s.

On to `O=C(Cn1cccc(-c2nc(-c3ccc(Br)cc3)no2)c1=O)Nc1ccc(F)cc1`, for which the RP-LC retention time came to 980 s.

`O=C(c1ccoc1)N1CCC(c2noc(C3CC3)n2)C1` (stereo not given): the RP-LC retention time was 694 s.

`CC(C)CCNC(=O)NCCc1nc2cccnc2n1Cc1ccccc1` registered an RP-LC retention time of 726 s.

In turn, `CCN(CC)c1ccc(-c2noc(CN3CCSCC3)n2)cn1` showed an RP-LC retention time of 651 s.

As to `Cc1ccc(S(=O)(=O)N2CCCCC2)cc1-c1nnc(-c2ccc(F)cc2)o1`, the RP-LC retention time amounted to 1110 s.

For the compound `CCOC(=O)c1ccccc1NC(=O)c1nc(SC)ncc1Cl`, the RP-LC retention time turned out to be 1240 s.

On to `Cc1cc(C)cc(NC(=O)C2CCN(S(=O)(=O)c3c(C)nn(-c4ccccc4)c3C)CC2)c1`, for which the RP-LC retention time was 1060 s.

`COc1ccc(-n2ccn3cc(-c4ccc(OC)c(OC)c4)nc3c2=O)cc1Cl` returned an RP-LC retention time of 780 s.

Take `O=C(NCCc1cccs1)C1CCCN(c2nc3ccsc3c(=O)n2Cc2ccccc2)C1` (stereo not given): the RP-LC retention time came out at 949 s.

As for `CCOc1ccc(NC(=O)c2cc3sc(Cl)cc3n2CC)cc1`, the RP-LC retention time was determined as 1240 s.

On to `Cc1csc(NC(=O)C2CC(=O)N(c3n[nH]c4ccccc34)C2)n1` (stereo not given), for which the RP-LC retention time is 665 s.

As to `Cc1ccc(C)c(NS(=O)(=O)c2cc(-c3[nH]ncc3C(=O)N3CCCCC3)oc2C)c1`, the RP-LC retention time was determined as 799 s.

In turn, `O=C(Cn1cccc1-c1nc(-c2ccccc2)no1)Nc1ccc2c(c1)OCCO2` displayed an RP-LC retention time of 1090 s.

Turning to `COc1ccc(-n2nnc3c(SCc4cccc([N+](=O)[O-])c4)ncnc32)cc1`, the RP-LC retention time stood at 1100 s.

Compound `COc1ccc(-c2c(C)noc2NC(C)=O)cc1S(=O)(=O)N1CCCC1` came in with an RP-LC retention time of 673 s.

In the case of `Cc1cc2c(N3CCCC(C(=O)NCc4ccc(F)cc4F)C3)nccc2s1` (stereo not given), the RP-LC retention time came to 700 s.

Take `O=C(NCc1ccco1)N1CCN(c2nc3cccnc3n(Cc3ccccc3)c2=O)CC1`: the RP-LC retention time came out at 935 s.

`O=C(c1cccs1)N1CCC2(CC1)NC(=O)N(Cc1ccccc1)C2=O` had an RP-LC retention time of 741 s.

As to `Cc1nn(CCCC(=O)N2CCN(c3ccccn3)CC2)c(=O)c2cc3sccc3n12`, the RP-LC retention time is 587 s.

Compound `COc1ccc(-c2noc(C3CCCN3C(=O)Nc3cc(OC)cc(OC)c3)n2)cc1` (stereo not given) had an RP-LC retention time of 941 s.

Turning to `CC1=C(c2ccccc2)S(=O)(=O)N=C1N1CCCN(C(=O)Nc2cccc(F)c2)CC1`, the RP-LC retention time turned out to be 849 s.

Compound `O=C(Cc1ccccc1)NCCc1nc2ccccc2[nH]1` registered an RP-LC retention time of 545 s.

`COCC(=O)NCC12CCC=C1N(C)C(=O)CC2` (stereo not given) yielded an RP-LC retention time of 618 s.

Turning to `CC(C)c1noc(C2(NC(=O)c3ccc(C(F)(F)F)cc3)CCCCC2)n1`, the RP-LC retention time was 1130 s.

Turning to `Cc1ccc(-c2cc3c(=O)n(Cc4nc(-c5ccccc5Cl)no4)ncn3n2)c(C)c1`, the RP-LC retention time was 1220 s.

In the case of `Cc1[nH]nc(-c2c(C)sc(C)c2S(=O)(=O)NC2CCCc3ccccc32)c1C` (stereo not given), the RP-LC retention time was determined as 1130 s.
